Assay results published in patent US11840528B2 (Hoffmann-La Roche Inc., priority 2018, dated 2023).
Values belong to the compound of their own block, whether it stands above or below them.

What was measured:
h-GABA-A α5β3γ2 [1] = biological target: T1, h-GABA-A α5β3γ2 (Homo sapiens, UniProt P18507+P31644); assay: [3H]flumazenil competition binding assay, membranes of HEK293 cells expressing GABAA receptors; details: displacement of [3H]-Flumazenil 0.5 nM, HEK293 cells expressing human receptors, mean of two determinations; Table 1
Procedure, shortened: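 Membranes from HEK293 cells transiently expressing human α5β3γ2 GABAA receptors, in Krebs-tris buffer pH 7.5, competed against [3H]flumazenil for 1 hour at 4° C to equilibrium. Bound radioactivity collected on GF/C filters and counted by liquid scintillation; Ki values are means of two determinations.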

h-GABA-A α5β3γ2 [2] = biological target: T1, h-GABA-A α5β3γ2; assay: Two-electrode voltage clamp electrophysiology in Xenopus laevis oocytes expressing GABAA receptors, modulation of GABA EC20 current; type: cell-based; design: host or cells: Xenopus laevis oocytes micro-injected with RNA transcripts of the subunits; details: Table 1; for Efficacy (GABA) %: % modulation of GABA EC20 = 100*(Fold increase-1); for Fold increase h-GABA-A α5β3γ2 oocyte: test compound at approx. 30 fold its Ki, GABA at EC20
Procedure, shortened: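 Human α5β3γ2 GABAA receptors were expressed in Xenopus oocytes by RNA injection, with γ2 RNA 5–10-fold higher, and recorded 3–5 days later by two-electrode voltage clamp at −80 mV at room temperature. The test compound, at about 30× its Ki, was co-applied during a second GABA EC20 pulse. Efficacy is the extremum of the point-by-point ratio to the first response, expressed as 100*(Fold increase−1).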

Compound: Cc1ccc(-c2noc(C)c2Cn2ncc(N3CCN(C4CC4)[C@@H](C)C3)cc2=O)cn1 [Example 60, 5-[(3S)-4-cyclopropyl-3-methyl-piperazin-1-yl]-2-[[5-methyl-3-(6-methyl-3-pyridyl)isoxazol-4-yl]methyl]pyridazin-3-one]
Ki (h-GABA-A α5β3γ2 [1]): 10.2 nM
Efficacy (GABA) % (h-GABA-A α5β3γ2 [2]): 97%
Fold increase h-GABA-A α5β3γ2 oocyte (h-GABA-A α5β3γ2 [2]): 1.97

Compound: COc1ccccc1C1CCN(c2cnn(Cc3c(-c4ccc(C)nc4)noc3C)c(=O)c2)CC1 [Example 61, 5-[4-(2-methoxyphenyl)-1-piperidyl]-2-[[5-methyl-3-(6-methyl-3-pyridyl)isoxazol-4-yl]methyl]pyridazin-3-one]
Ki (h-GABA-A α5β3γ2 [1]): 15.4 nM
Efficacy (GABA) % (h-GABA-A α5β3γ2 [2]): 76%
Fold increase h-GABA-A α5β3γ2 oocyte (h-GABA-A α5β3γ2 [2]): 1.76

Compound: Cc1cc(-c2noc(C)c2Cn2ncc(N3C[C@@H](C)O[C@@H](C)C3)cc2=O)no1 [Example 62, 5-(cis-2,6-dimethylmorpholin-4-yl)-2-[[5-methyl-3-(5-methylisoxazol-3-yl)isoxazol-4-yl]methyl]pyridazin-3-one]
Ki (h-GABA-A α5β3γ2 [1]): 0.6 nM
Efficacy (GABA) % (h-GABA-A α5β3γ2 [2]): 88%
Fold increase h-GABA-A α5β3γ2 oocyte (h-GABA-A α5β3γ2 [2]): 1.88

Compound: Cc1cc(-c2noc(C)c2Cn2ncc(N3CCN(C4CC4)CC3)cc2=O)no1 [Example 63, 5-(4-cyclopropylpiperazin-1-yl)-2-[[5-methyl-3-(5-methylisoxazol-3-yl)isoxazol-4-yl]methyl]pyridazin-3-one]
Ki (h-GABA-A α5β3γ2 [1]): 5.9 nM
Efficacy (GABA) % (h-GABA-A α5β3γ2 [2]): 41%
Fold increase h-GABA-A α5β3γ2 oocyte (h-GABA-A α5β3γ2 [2]): 1.41

Compound: Cc1ccc(-c2noc(C)c2Cn2ncc(N(C)C3CC3)cc2=O)cn1 [Example 64, 5-(cyclopropyl(methyl)amino)-2-((5-methyl-3-(6-methylpyridin-3-yl)isoxazol-4-yl)methyl)pyridazin-3(2H)-one]
Ki (h-GABA-A α5β3γ2 [1]): 1.8 nM
Efficacy (GABA) % (h-GABA-A α5β3γ2 [2]): 108%
Fold increase h-GABA-A α5β3γ2 oocyte (h-GABA-A α5β3γ2 [2]): 2.08

Compound: Cc1ccc(-c2noc(C)c2Cn2ncc(N(C)C3COC3)cc2=O)cn1 [Example 65, 5-(methyl(oxetan-3-yl)amino)-2-((5-methyl-3-(6-methylpyridin-3-yl)isoxazol-4-yl)methyl)pyridazin-3(2H)-one]
Ki (h-GABA-A α5β3γ2 [1]): 4.7 nM
Efficacy (GABA) % (h-GABA-A α5β3γ2 [2]): 142%
Fold increase h-GABA-A α5β3γ2 oocyte (h-GABA-A α5β3γ2 [2]): 2.42

Compound: Cc1onc(-c2ccc(C(F)(F)F)nc2)c1Cn1ncc(N2CCN(C3CC3)CC2)cc1=O [Example 66, 5-(4-cyclopropylpiperazin-1-yl)-2-[[5-methyl-3-[6-(trifluoromethyl)-3-pyridyl]isoxazol-4-yl]methyl]pyridazin-3-one]
Ki (h-GABA-A α5β3γ2 [1]): 26.4 nM
Efficacy (GABA) % (h-GABA-A α5β3γ2 [2]): 121%
Fold increase h-GABA-A α5β3γ2 oocyte (h-GABA-A α5β3γ2 [2]): 2.21

Compound: Cc1ccc(-c2noc(C)c2Cn2ncc(-c3ccccc3)cc2=O)cn1 [Example 67, 2-((5-methyl-3-(6-methylpyridin-3-yl)isoxazol-4-yl)methyl)-5-phenylpyridazin-3(2H)-one]
Ki (h-GABA-A α5β3γ2 [1]): 10.5 nM
Efficacy (GABA) % (h-GABA-A α5β3γ2 [2]): 107%
Fold increase h-GABA-A α5β3γ2 oocyte (h-GABA-A α5β3γ2 [2]): 2.07

Compound: Cc1ccc(-c2noc(C)c2Cn2ncc(-c3ccc(F)cc3)cc2=O)cn1 [Example 68, 5-(4-fluorophenyl)-2-[[5-methyl-3-(6-methylpyridin-3-yl)-1,2-oxazol-4-yl]methyl]pyridazin-3-one]
Ki (h-GABA-A α5β3γ2 [1]): 11.9 nM
Efficacy (GABA) % (h-GABA-A α5β3γ2 [2]): 71%
Fold increase h-GABA-A α5β3γ2 oocyte (h-GABA-A α5β3γ2 [2]): 1.71

Compound: Cc1ccc(-c2noc(C)c2Cn2ncc(N3CC4(CCC4)C3)cc2=O)cn1 [Example 69, 5-(2-azaspiro[3.3]heptan-2-yl)-2-[[5-methyl-3-(6-methyl-3-pyridyl)isoxazol-4-yl]methyl]pyridazin-3-one]
Ki (h-GABA-A α5β3γ2 [1]): 38.9 nM
Efficacy (GABA) % (h-GABA-A α5β3γ2 [2]): 155%
Fold increase h-GABA-A α5β3γ2 oocyte (h-GABA-A α5β3γ2 [2]): 2.55

Compound: Cc1ccc(-c2noc(C)c2Cn2ncc(N(C)CC(C)(C)O)cc2=O)cn1 [Example 70, 5-((2-hydroxy-2-methylpropyl)(methyl)amino)-2-((5-methyl-3-(6-methylpyridin-3-yl)isoxazol-4-yl)methyl)pyridazin-3(2H)-one]
Ki (h-GABA-A α5β3γ2 [1]): 0.6 nM
Efficacy (GABA) % (h-GABA-A α5β3γ2 [2]): 106%
Fold increase h-GABA-A α5β3γ2 oocyte (h-GABA-A α5β3γ2 [2]): 2.06

Compound: C[C@@H]1CN(c2cnn(Cc3conc3-c3ccc(C(F)(F)F)nc3)c(=O)c2)C[C@H](C)O1 [Example 72, 5-(cis-2,6-dimethylmorpholin-4-yl)-2-[[3-[6-(trifluoromethyl)-3-pyridyl]isoxazol-4-yl]methyl]pyridazin-3-one]
Ki (h-GABA-A α5β3γ2 [1]): 40.2 nM
Efficacy (GABA) % (h-GABA-A α5β3γ2 [2]): 167%
Fold increase h-GABA-A α5β3γ2 oocyte (h-GABA-A α5β3γ2 [2]): 2.67

Next, values leading:

Ki (h-GABA-A α5β3γ2 [1]): 0.4 nM
Efficacy (GABA) % (h-GABA-A α5β3γ2 [2]): 132%
Fold increase h-GABA-A α5β3γ2 oocyte (h-GABA-A α5β3γ2 [2]): 2.32
Compound: Cc1ccc(-c2noc(C)c2Cn2ncc(N3CCNC4(CC4)C3)cc2=O)cn1 [Example 74, 5-(4,7-diazaspiro[2.5]octan-7-yl)-2-[[5-methyl-3-(6-methyl-3-pyridyl)isoxazol-4-yl]methyl]pyridazin-3-one]

Ki (h-GABA-A α5β3γ2 [1]): 3.6 nM
Efficacy (GABA) % (h-GABA-A α5β3γ2 [2]): 104%
Fold increase h-GABA-A α5β3γ2 oocyte (h-GABA-A α5β3γ2 [2]): 2.04
Compound: Cc1ccc(-c2noc(C)c2Cn2ncc(N3CCNCC3)cc2=O)cn1 [Example 75, 2-[[5-methyl-3-(6-methyl-3-pyridyl)isoxazol-4-yl]methyl]-5-piperazin-1-yl-pyridazin-3-one]

Ki (h-GABA-A α5β3γ2 [1]): 6.4 nM
Efficacy (GABA) % (h-GABA-A α5β3γ2 [2]): 71%
Fold increase h-GABA-A α5β3γ2 oocyte (h-GABA-A α5β3γ2 [2]): 1.71
Compound: COc1ccc(-c2cnn(Cc3c(-c4ccc(C)nc4)noc3C)c(=O)c2)cc1 [Example 76, 5-(4-methoxyphenyl)-2-[[5-methyl-3-(6-methylpyridin-3-yl)-1,2-oxazol-4-yl]methyl]pyridazin-3-one]

Ki (h-GABA-A α5β3γ2 [1]): 30.4 nM
Efficacy (GABA) % (h-GABA-A α5β3γ2 [2]): 149%
Fold increase h-GABA-A α5β3γ2 oocyte (h-GABA-A α5β3γ2 [2]): 2.49
Compound: Cc1ccc(-c2noc(C)c2Cn2ncc(N3CC4(CNC4)C3)cc2=O)cn1 [Example 77, 5-(2,6-diazaspiro[3.3]heptan-2-yl)-2-[[5-methyl-3-(6-methyl-3-pyridyl)isoxazol-4-yl]methyl]pyridazin-3-one]

Ki (h-GABA-A α5β3γ2 [1]): 64.6 nM
Efficacy (GABA) % (h-GABA-A α5β3γ2 [2]): 92%
Fold increase h-GABA-A α5β3γ2 oocyte (h-GABA-A α5β3γ2 [2]): 1.92
Compound: CNc1cnn(Cc2c(-c3ccc(C)nc3)noc2C)c(=O)c1 [Example 78, 2-((5-methyl-3-(6-methylpyridin-3-yl)isoxazol-4-yl)methyl)-5-(methylamino)pyridazin-3(2H)-one]

Ki (h-GABA-A α5β3γ2 [1]): 16.1 nM
Efficacy (GABA) % (h-GABA-A α5β3γ2 [2]): 111%
Fold increase h-GABA-A α5β3γ2 oocyte (h-GABA-A α5β3γ2 [2]): 2.11
Compound: CCOc1ccc(-c2cnn(Cc3c(-c4ccc(C)nc4)noc3C)c(=O)c2)cc1 [Example 79, 5-(4-ethoxyphenyl)-2-((5-methyl-3-(6-methylpyridin-3-yl)isoxazol-4-yl)methyl)pyridazin-3(2H)-one]

Ki (h-GABA-A α5β3γ2 [1]): 8.6 nM
Efficacy (GABA) % (h-GABA-A α5β3γ2 [2]): 133%
Fold increase h-GABA-A α5β3γ2 oocyte (h-GABA-A α5β3γ2 [2]): 2.33
Compound: COc1ccc(-c2cnn(Cc3c(-c4ccc(C)nc4)noc3C)c(=O)c2)cc1F [Example 80, 5-(3-fluoro-4-methoxyphenyl)-2-((5-methyl-3-(6-methylpyridin-3-yl)isoxazol-4-yl)methyl)pyridazin-3(2H)-one]

Ki (h-GABA-A α5β3γ2 [1]): 24.2 nM
Efficacy (GABA) % (h-GABA-A α5β3γ2 [2]): 123%
Fold increase h-GABA-A α5β3γ2 oocyte (h-GABA-A α5β3γ2 [2]): 2.23
Compound: COc1ccc(-c2cnn(Cc3c(-c4ccc(C)nc4)noc3C)c(=O)c2)cn1 [Example 81, 5-(6-methoxypyridin-3-yl)-2-((5-methyl-3-(6-methylpyridin-3-yl)isoxazol-4-yl)methyl)pyridazin-3(2H)-one]

Ki (h-GABA-A α5β3γ2 [1]): 32.8 nM
Efficacy (GABA) % (h-GABA-A α5β3γ2 [2]): 245%
Fold increase h-GABA-A α5β3γ2 oocyte (h-GABA-A α5β3γ2 [2]): 3.45
Compound: Cc1ccc(-c2noc(C)c2Cn2ncc(N3CC4(CN(C)C4)C3)cc2=O)cn1 [Example 82, 5-(6-methyl-2,6-diazaspiro[3.3]heptan-2-yl)-2-[[5-methyl-3-(6-methyl-3-pyridyl)isoxazol-4-yl]methyl]pyridazin-3-one]

Ki (h-GABA-A α5β3γ2 [1]): 17.2 nM
Efficacy (GABA) % (h-GABA-A α5β3γ2 [2]): 50%
Fold increase h-GABA-A α5β3γ2 oocyte (h-GABA-A α5β3γ2 [2]): 1.5
Compound: Cc1ccc(-c2noc(C)c2Cn2ncc(-c3ccc(C(F)(F)F)cc3)cc2=O)cn1 [Example 83]

Ki (h-GABA-A α5β3γ2 [1]): 85 nM
Efficacy (GABA) % (h-GABA-A α5β3γ2 [2]): 89%
Fold increase h-GABA-A α5β3γ2 oocyte (h-GABA-A α5β3γ2 [2]): 1.89
Compound: COc1ccc(-c2cnn(Cc3c(-c4ccc(C)nc4)noc3C)c(=O)c2)nc1 [Example 84, 5-(5-methoxypyridin-2-yl)-2-((5-methyl-3-(6-methylpyridin-3-yl)isoxazol-4-yl)methyl)pyridazin-3(2H)-one]

Ki (h-GABA-A α5β3γ2 [1]): 18.1 nM
Efficacy (GABA) % (h-GABA-A α5β3γ2 [2]): 134%
Fold increase h-GABA-A α5β3γ2 oocyte (h-GABA-A α5β3γ2 [2]): 2.34
Compound: Cc1ccc(-c2noc(C)c2Cn2ncc(N3CC(C#N)C3)cc2=O)cn1 [Example 85, 1-[1-[[5-methyl-3-(6-methyl-3-pyridyl)isoxazol-4-yl]methyl]-6-oxo-pyridazin-4-yl]azetidine-3-carbonitrile]

Ki (h-GABA-A α5β3γ2 [1]): 11.9 nM
Efficacy (GABA) % (h-GABA-A α5β3γ2 [2]): 87%
Fold increase h-GABA-A α5β3γ2 oocyte (h-GABA-A α5β3γ2 [2]): 1.87
Compound: Cc1onc(-c2ccc(Cl)cn2)c1Cn1ncc(N2CC3(C2)CN(C2CC2)C3)cc1=O [Example 86, 2-[[3-(5-chloro-2-pyridyl)-5-methyl-isoxazol-4-yl]methyl]-5-(2-cyclopropyl-2,6-diazaspiro[3.3]heptan-6-yl)pyridazin-3-one]

Ki (h-GABA-A α5β3γ2 [1]): 39 nM
Efficacy (GABA) % (h-GABA-A α5β3γ2 [2]): 105%
Fold increase h-GABA-A α5β3γ2 oocyte (h-GABA-A α5β3γ2 [2]): 2.05
Compound: Cc1cc(-c2noc(C)c2Cn2ncc(N3CC4(C3)CN(C3CC3)C4)cc2=O)no1 [Example 87, 5-(2-cyclopropyl-2,6-diazaspiro[3.3]heptan-6-yl)-2-[[5-methyl-3-(5-methylisoxazol-3-yl)isoxazol-4-yl]methyl]pyridazin-3-one]
